Assay results: US10239840B2, “Benzoazepine derivatives” (ViiV HEALTHCARE UK LIMITED, priority 2015, dated 2019)

Tested on: HIV
Experiment: MT4 assay, antiviral HIV activity
Assay type: cell-based
Conditions: MT-4 cells (HTLV-1 transformed), read-out at 96 hours with cell titer glo
Method: Antiviral HIV activity and cytotoxicity values for compounds of the invention from Table 1 were measured in parallel in the HTLV-1 transformed cell line MT-4 based on the method previously described (Hazen et al., 2007, In vitro antiviral activity of the novel, tyrosyl-based human immunodeficiency virus (HIV) type 1 protease inhibitor brecanavir (GW640385) in combination with other antiretrovirals and against a panel of protease inhibitor-resistant HIV (Hazen et al., “In vitro antiviral activity of the novel, tyrosyl-based human immunodeficiency virus (HIV) type 1 protease inhibitor brecanavir (GW640385) in combination with other antiretrovirals and against a panel of protease inhibitor-resistant HIV”, Antimicrob. Agents Chemother. 2007, 51: 3147-3154; and Pauwels et al., “Sensitive and rapid assay on MT-4 cells for the detection of antiviral compounds against the AIDS virus”, J. of Virological Methods 1987, 16: 171-185).
Luciferase activity was measured 96 hours later by adding a cell titer glo (Promega, Madison, Wis.). Percent inhibition of cell protection data was plotted relative to no compound control. Under the same condition, cytotoxicity of the compounds was determined using cell titer Glo™ (Promega, Madison, Wis.). IC50s were determined from a 10 point dose response curve using 3-4-fold serial dilution for each compound, which spans a concentration range >1000 fold.
These values are plotted against the molar compound concentrations using the standard four parameter logistic equation: y=((Vmax*x^n)/(K^n+x^n)+Y2
Y2=minimum γ n=slope factor
Vmax=maximum γ x=compound concentration [M]

Row | Structure (SMILES) | IC50 [nM]
1 | Cc1c(-c2c(C)c3c(c(C)c2[C@H](OC(C)(C)C)C(=O)O)CCN(S(=O)(=O)C2CCCCC2)CC3)cc(F)c2c1CCCO2 (atropisomer, axis not shown; (M)) [Example 20, (2S)-2-(tert-butoxy)-2-((M)-3-(cyclohexylsulfonyl)-8-(8-fluoro-5-methylchroman-6-yl)-6,9-dimethyl-2,3,4,5-tetrahydro-1H-benzo[d]azepin-7-yl)acetic Acid] | 42
2 | Cc1c(-c2c(C)c3c(c(C)c2[C@H](OC(C)(C)C)C(=O)O)CCN(S(=O)(=O)N2CCCCC2)CC3)cc(F)c2c1CCCO2 (atropisomer, axis not shown; (M)) [Example 21, (2S)-2-(tert-butoxy)-2-((M)-8-(8-fluoro-5-methylchroman-6-yl)-6,9-dimethyl-3-(piperidin-1-ylsulfonyl)-2,3,4,5-tetrahydro-1H-benzo[d]azepin-7-yl)acetic Acid] | 8
3 | Cc1c(-c2c(C)c3c(c(C)c2[C@H](OC(C)(C)C)C(=O)O)CCN(C(=O)N2CCCCC2)CC3)cc(F)c2c1CCCO2 (atropisomer, axis not shown; (M)) [Example 22, (2S)-2-(tert-butoxy)-2-((M)-8-(8-fluoro-5-methylchroman-6-yl)-6,9-dimethyl-3-(piperidine-1-carbonyl)-2,3,4,5-tetrahydro-1H-benzo[d]azepin-7-yl)acetic Acid] | 9
4 | COc1ccc(-c2c(C)c3c(c(C)c2[C@H](OC(C)(C)C)C(=O)O)CCN(C(=O)c2cccc(F)c2)CC3)cc1 [Example 2, (S)-2-(tert-butoxy)-2-(3-(3-fluorobenzoyl)-8-(4-methoxyphenyl)-6,9-dimethyl-2,3,4,5-tetrahydro-1H-benzo[d]azepin-7-yl)acetic Acid] | 76
5 | Cc1c2c(c(C)c([C@H](OC(C)(C)C)C(=O)O)c1-c1ccccc1)CCN(C(=O)c1cccc(F)c1)CC2 [Example 3, (S)-2-(tert-butoxy)-2-(3-(3-fluorobenzoyl)-6,9-dimethyl-8-phenyl-2,3,4,5-tetrahydro-1H-benzo[d]azepin-7-yl)acetic Acid] | 219
6 | Cc1ccc(-c2c(C)c3c(c(C)c2[C@H](OC(C)(C)C)C(=O)O)CCN(C(=O)c2cccc(F)c2)CC3)cc1 [Example 4, (S)-2-(tert-butoxy)-2-(3-(3-fluorobenzoyl)-6,9-dimethyl-8-(p-tolyl)-2,3,4,5-tetrahydro-1H-benzo[d]azepin-7-yl)acetic Acid] | 34
